Data set [1] deals with Campylobacter jejuni. Briefly: Broth microdilution MIC/MBC and antibacterial titer on Campylobacter jejuni. The data set is classed as cell-based. How it is done: Bacterial strains and media. The antibacterial activity in Trichuris suis ESP was originally observed using Campylobacter jejuni (ATCC 33292), and this was the strain on which most experiments were performed for this preliminary characterization. Several Campylobacter jejuni and Campylobacter coli isolates were used for MIC determinations (Table 1).
Additional quality control organisms routinely used for antimicrobial susceptibility assays were tested, including Enterococcus faecalis (ATCC 29212), Staphylococcus aureus (ATCC 25923), Escherichia coli (ATCC 25922), Pseudomonas aeruginosa (ATCC 27853), and Streptococcus pneumonia (ATCC 49619). […]
(§1) A broth microdilution method in 96 well plates was used to obtain qualitative and quantitative measures of antibacterial activity. Qualitatively, 50 μl samples of ESP were added to 50 μl suspensions of Campylobacter jejuni (containing about 5×10^5 cfu, as determined by standard serial dilution and plating) in 96 well plates. Plates were evaluated for growth as indicated by the presence of either turbidity or pellet of bacterial cells in the bottoms of U-shaped wells after 48 hr incubation.
To quantify activity and determine the minimum inhibitory concentration (MIC) of ESP against test organisms, serial two-fold dilutions of 20×-concentrated ESP were prepared in 50 μl volumes of MHB (n=2). […]
For orientation: Dilution methods test growth across graded concentrations, often in twofold steps.

Data set [2] has as its system Campylobacter jejuni. The data set can be described thus: HPLC fractionation with qualitative broth microdilution bioassay of fractions. The data set is classed as cell-based. The following applies: C18 reverse phase HPLC, 5-80% ACN gradient in TFA. How it is done: as §1
High performance liquid chromatography. A Model 173 high performance liquid chromatography (HPLC) system (Perkin Elmer Applied Biosystems, Inc., Foster City, Calif.) at the Michigan State University Macromolecular Structure Facility was used to fractionate Trichuris suis ESP for preliminary isolation of the antibacterial activity (Hearn, Meth. Enzymol. 104: 190-212 (1984)). Samples (150 μl) of ESP were mixed with an equal volume of 0.1% trifluoroacetic acid (TFA) and centrifuged at full speed (11,000×g) at room temperature for 15 minutes. […] Absorbance of the eluate was monitored at 214 nm, and fractions were collected manually as peaks were detected. […]

For data set [3], the system named is Campylobacter jejuni. Briefly: Effect of boiling on antibiotics, qualitative broth microdilution assay. The format is cell-based. The following applies: 1x concentration, boiled for 10 minutes. Here is the method: as §1, with “incubation. […] The size of the drug was also taken into consideration. Additionally, an experiment to assess the heat stability of the antibiotics was performed.” for “incubation.”

Data set [4] can be described thus: n-octanol/water partition coefficient (log PC) of antibiotics. The format is physicochemical. The following applies: in parentheses beside log PC. How it is done: Consideration of CAP contamination. […] Using the worst-case scenario, the predicted maximum amount of CAP absorbed and how much would be released into the medium if the whipworms dissolved (i.e., released 100%) was estimated. […] It was assumed that the aggregate whipworm volume of these eccentrically shaped nematodes occupied 4% of the incubation well volume (4 whipworms/ml at about 10 μl/whipworm).

For data set [5] the following is noted: compiled from a drug database at Upjohn; cited from earlier work.

Converted amounts (≈) assume the structure as drawn. Counter-ions that a name gives are not always drawn.

The term MIC denotes the lowest concentration found to suppress growth. Higher therefore signals a need for much substance. `O=C(N[C@H](CO)[C@H](O)c1ccc([N+](=O)[O-])cc1)C(Cl)Cl` [Chloramphenicol] showed an MIC against Campylobacter jejuni [1] of roughly 2 µg/mL (≈ 6.19 µM). Besides, the “antibacterial activity of HPLC fractions” value with Campylobacter jejuni [2] is on record as “one fraction with antibacterial activity”. The “Antibacterial activity after boiling” value in the data set with Campylobacter jejuni [3] was “+”.

In the case of `CC1(C)S[C@@H]2[C@H](NC(=O)Cc3ccccc3)C(=O)N2[C@H]1C(=O)O` [Penicillin G], in data set [4], the Concentrating factor turned out to be 71 x. In data set [5], the “log PC (n-octanol/water partition coefficient)” value is on record as 185. The “Antibacterial activity after boiling” value with Campylobacter jejuni [3] is on record as “−”.

For `[H]/N=C(/N)N[C@H]1[C@H](O)[C@@H](O)[C@H](O[C@@H]2O[C@@H](C)[C@](O)(C=O)[C@H]2O[C@@H]2O[C@@H](CO)[C@H](O)[C@@H](O)[C@@H]2NC)[C@@H](N/C(N)=N\[H])[C@@H]1O` [Streptomycin sulfate], the “log PC (n-octanol/water partition coefficient)” value in data set [5] is −9.53(—). Further, the “Antibacterial activity after boiling” value in the data set with Campylobacter jejuni [3] is on record as “+”.

Values taken from patent US20060216356A1, “Detection of antibacterial activity in excretory secretory product of adult trichuris suis” (Board of Trustees of Michigan State University, priority 2000, published 2006).
